Counter-ions that a name gives are not always drawn.
What was measured:
[1] = system: human lung carcinoma cell line A549; test: In vitro cytotoxicity, clone forming assay in A549 cells; assay type: cell-based; details: A549, 24 h exposure, 12 days cultivation
Protocol: In vitro cytotoxicity of compounds (+)-8a-e and (+)-4a-e: Adherent cells of line A549 were sown in triplicate in 6 multiwell plates at concentrations of 10^2, 10^3, 10^4, and 10^5 cells per cavity. Culture medium was removed after 24 h and cells were washed hi the incubation medium Ultraculture (UC, serum-free special medium, purchased from BioWhittaker Europe, Verviers, Belgium). Incubation with compounds (+)-8a-e and (+)-4a-e was then performed in Ultraculture medium at various concentrations for 24 h. All substances were used as freshly prepared solutions in DMSO (Merck, Darmstadt, Germany) diluted with incubation medium to a final concentration of 1% DMSO in the wells. After 24 h of exposure the test substance was removed and the cells were washed with fresh medium. Cultivation was done at 37° C. and 7.5% CO2 in air for 12 days. The medium was removed and the clones were dried and stained with Löffler's methylene blue (Merck, Darmstadt, Germany). They were then counted macroscopically.
The IC50 values are based on the relative clone forming rate, which was determined according to the following formula: relative clone forming rate [%]=100×(number of clones counted after exposure)/(number of clones counted in the control).
Liberation of the drugs from their glycosidic prodrugs was achieved by addition of 4.0 U·mL^−1 β-D-galactosidase (EC 3.2.1.23, Grade X, purchased from Sigma Germany, Deisenhofen, Germany) to the cells during incubation with the substances.

[2] = system: MDA-MB-231 cells (estrogen-independent human breast cancer cell line); test: ADEPT in vivo experiment, orthotopic breast tumor SCID mouse model
Protocol: Compound (+)-8a was evaluated in an orthotopic breast tumor SCID mouse model using the ADEPT concept. Female SCID mice were inoculated with 1×10^6 MDA-MB-231 cells (estrogen-independent human breast cancer cell line) suspended in 25 μl sterile PBS in the mammary fad pat of the 4th mammary complex. Tumors were allowed to grow and ADEPT therapy was started after tumor volumes reached a detectable size. Mice were treated according to the treatment schedule in FIG. 17 and received two treatment cycles of a monoclonal anti-human urokinase plasminogen activator receptor (uPAR) antibody conjugated with β-Galactosidase, uPAR*β-Gal, in PBS followed by three injections with conjugate (+)-8a in 1% DMSO/NaCl solution. Control groups received either antibody-enzyme and 1% DMSO/NaCl solution (antibody-enzyme only group), PBS and conjugate (conjugate only group), or PBS and 1% DMSO/NaCl solution (control group).
In vivo evaluation of compound (+)-8a in an orthotopic breast tumor SCID mouse model using the ADEPT concept: Before tumor cell implantation, female SCID mice were anesthetized by peritoneal injection of 75 mg/kg ketamine hydrochloride with 15 mg/kg xylazine. 1×10^6 MDA-MB-231 cells (estrogen-independent human breast cancer cell line) suspended in 25 μl sterile phosphate-buffered saline (PBS) were then implanted into the mammary fad pat of the 4th mammary complex. After implantation, mice were inspected daily for body weight loss, general condition, and tumor formation. On day 21, animals were randomized in groups of 5-12 mice (control, antibody-enzyme only, prodrug only, and ADEPT therapy). On days 22 and 30, mice were injected intravenously with PBS (control, prodrug only groups) or 50 μg of a monoclonal anti-human urokinase plasminogen activator receptor (uPAR) antibody conjugated with β-Galactosidase, uPAR*β-Gal, in PBS (antibody-enzyme only, ADEPT therapy groups). On days 24, 26, 28, 32, 34, and 36, mice were injected intravenously with 1% DMSO/NaCl solution (control, antibody-enzyme only groups) or 104 μg of (+)-8a in 1% DMSO/NaCl solution (prodrug only, ADEPT therapy groups). Mice were sacrificed on day 38 and tumors were excised, weighed, placed in phosphate-buffered 4% formalin for 16 hours at room temperature, and embedded in paraffin. Tissue sections (2.5 μm) were obtained, stained with hematoxylin and eosin (H & E), and inspected by routine microscopic examinations. For immunohistochemistry, 2.5 μm sections from formalin-fixed and paraffin-embedded tissues, were mounted on slides, deparaffinized in xylene and rehydrated in ethanol/water dilutions. Slides for Ki67 staining were pretreated by boiling in a microwave oven (5×5 min) in citrate buffer (pH 6.0) for antigen retrieval. Endogenous peroxidases were inactivated by treatment with 3% hydrogen peroxide for 10 min. Tris-buffered 10% rabbit serum solution (Dako, Hamburg, Germany, No. X 0902) was then added to block nonspecific protein binding and slides were incubated with murine anti-human Ki67 (Dianova, Hamburg, Germany, No. dia 505) for 60 min (2 μg/ml) followed by exposure to biotinylated rabbit anti-mouse F(ab′)2-fragment (Dako, No. E 0413, 16.8 μg/ml) for 30 min. Sections were then incubated with avidin-peroxidase solution (Dako, No. P 364), stained with aminoethylcarbazole (AEC substrate solution, Sigma), rinsed in water, and finally counterstained with hematoxylin.

[3] = with addition of 4.0 U/mL β-D-galactosidase
[4] = without addition of β-D-galactosidase

| Structure (SMILES) | IC50 [1, 3] | IC50 [1, 4] | other results |
| --- | --- | --- | --- |
| C[C@@H](Cl)[C@@H]1CN(C(=O)c2cc3cc(OCCN(C)C)ccc3[nH]2)c2cc(O[C@@H]3O[C@H](CO)[C@H](O)[C@H](O)[C@H]3O)c3ccccc3c21 [(1S,10R)-8a and (1R,10S)-8a′, [(1,10)-anti-1-(10-Chloroethyl)-3-[(5-(2-(N,N-dimethylamino)ethoxy)-indol-2-yl)carbonyl]-1,2-dihydro-3H-benz[e]indol-5-yl]-β-D-galactopyranoside] | 1.2 nM | 7900 nM | – |
| CC(Cl)C1CN(C(=O)c2cc3cc(OCCN4CCOCC4)ccc3[nH]2)c2cc(O)c3ccccc3c21 (single isomer, unassigned; (+)) [(+)-4b, (+)-{(1,10)-anti-1-(10-Chloroethyl)-5-hydroxy-3-[(5-(2-(morpholin-4-yl)ethoxy)indol-2-yl)carbonyl]-1,2-dihydro-3H-benz[e]indole-hydrochloride}] | – | 3.7 nM | – |
| CC(Cl)C1CN(C(=O)c2cc3cc(OCC4CCN(C)CC4)ccc3[nH]2)c2cc(O[C@@H]3O[C@H](CO)[C@H](O)[C@H](O)[C@H]3O)c3ccccc3c21 (single isomer, unassigned; (+)) [(+)-8d, [(+)-(1,10)-anti-1-(10-Chloroethyl)-3-[(5-((1-methylpiperidin-4-yl)methoxy)-indol-2-yl)carbonyl]-1,2-dihydro-3H-benz[e]indol-5-yl]-β-D-galactopyranoside] | 0.75 nM | 830 nM | – |
| COc1cc2[nH]c(C(=O)N3CC(C(C)Cl)c4c3cc(O)c3ccccc43)cc2cc1OCCN(C)C (single isomer, unassigned; (+)) [(+)-4c, (+)-{(1,10)-anti-1-(10-Chloroethyl)-5-hydroxy-3-[(5-(2-(N,N-dimethylamino)ethoxy)-6-methoxy-indol-2-yl)carbonyl]-1,2-dihydro-3H-benz[e]indole-hydrochloride}] | – | 0.2 nM | – |
| C[C@@H](Cl)[C@@H]1CN(C(=O)c2cc3cc(NC(=O)CN(C)C)ccc3[nH]2)c2cc(O[C@@H]3O[C@H](CO)[C@H](O)[C@H](O)[C@H]3O)c3ccccc3c21 [(+)-8e] | 5.9 nM | 7700 nM | – |
| COc1cc2[nH]c(C(=O)N3C[C@@H]([C@@H](C)Cl)c4c3cc(O[C@@H]3O[C@H](CO)[C@H](O)[C@H](O)[C@H]3O)c3ccccc43)cc2cc1OCCN(C)C [(+)-8c, [(+)-(1S,10R)-1-(10-Chloroethyl)-3-[(5-(2-(N,N-dimethylamino)ethoxy)-6-methoxy-indol-2-yl)carbonyl]-1,2-dihydro-3H-benz[e]indol-5-yl]-β-D-galactopyranoside] | 0.22 nM | 940 nM | – |
| CC(Cl)C1CN(C(=O)c2cc3cc(NC(=O)CN(C)C)ccc3[nH]2)c2cc(O)c3ccccc3c21 (single isomer, unassigned; (+)) [(+)-4e] | – | 3.8 nM | – |
| CC(Cl)C1CN(C(=O)c2cc3cc(OCCN4CCOCC4)ccc3[nH]2)c2cc(O[C@@H]3O[C@H](CO)[C@H](O)[C@H](O)[C@H]3O)c3ccccc3c21 (single isomer, unassigned; (+)) [(+)-8b, [(+)-(1,10)-anti-1-(10-Chloroethyl)-3-[(5-(2-(morpholin-4-yl)ethoxy)-indol-2-yl)carbonyl]-1,2-dihydro-3H-benz[e]indol-5-yl]-β-D-galactopyranoside] | 2.5 nM | 1500 nM | – |
| CC(Cl)C1CN(C(=O)c2cc3cc(OCC4CCN(C)CC4)ccc3[nH]2)c2cc(O)c3ccccc3c21 (single isomer, unassigned; (+)) [(+)-4d, (+)-{(1,10)-anti-1-(10-Chloroethyl)-5-hydroxy-3-[(5-((1-methylpiperidin-4-yl)methoxy)indol-2-yl)carbonyl]-1,2-dihydro-3H-benz[e]indole-hydrochloride}] | – | 0.8 nM | – |
| C[C@@H](Cl)[C@@H]1CN(C(=O)c2cc3cc(OCCN(C)C)ccc3[nH]2)c2cc(O[C@@H]3O[C@H](CO)[C@H](O)[C@H](O)[C@H]3O)c3ccccc3c21 [(+)-8a, [(1,10)-anti-1-(10-Chloroethyl)-3-[(5-(2-(N,N-dimethylamino)ethoxy)-indol-2-yl)carbonyl]-1,2-dihydro-3H-benz[e]indol-5-yl]-β-D-galactopyranoside] | – | – | IC50 ([1]; with addition of 4.0 U/mL β-D-galactosidase, listed as (1S,10R)-8a): 0.75 nM; IC50 ([1]; without addition of β-D-galactosidase, listed as (1S,10R)-8a): 3600 nM; average primary tumor volume ([2]; ADEPT therapy (uPAR*β-Gal followed by (+)-8a i.v.), after one treatment cycle): 0.23±0.07 cm^3; mean tumor volume ([2]; ADEPT therapy (uPAR*β-Gal followed by (+)-8a i.v.), after two treatment cycles): 0.33±0.13 cm^3; necrotic tissue within tumors ([2]; ADEPT therapy versus vehicle-treated mice): more necrotic tissue within tumors; tolerability ([2]; ADEPT therapy, all animals): well tolerated; blood parameters ([2]; treated mice compared to controls): not altered; inhibitory effect on tumor growth with respect to vehicle control ([2]; treatment with the substance alone (antibody-enzyme only or conjugate only group)): no inhibitory effect |
| CC(Cl)C1CN(C(=O)c2cc3cc(OCCN(C)C)ccc3[nH]2)c2cc(O)c3ccccc3c21 (single isomer, unassigned; (+)) [(+)-4a, (1,10)-anti-1-(10-Chloroethyl)-5-hydroxy-3-[(5-(2-(N,N-dimethylamino)ethoxy)indol-2-yl)carbonyl]-1,2-dihydro-3H-benz[e]indole-hydrochloride] | – | 0.75 nM | – |
